Entries after “also recorded” stand apart in the source; their conditions may differ.
Key:
m^6A reporter mRNA = experiment: RT-qPCR of m^6A reporter mRNA abundance in HEK293T cells; format: cell-based, human
Experimental: (§1) Sanger sequencing and RT-qPCR. Cells were dissociated in culture using TrypLE (Gibco) treatment for 2 minutes and collected by centrifugation (6,000 rpm, 10 minutes, 4° C.). RNA was extracted using the RNA easy Plus Mini kit (Qiagen) according to the manufacturer's protocol. Extracted RNA was purified for genomic and plasmid DNA contamination by incubation with 1 μL DNase I at 37° C. for 30 minutes, and purified RNA was precipitated in 2.5 volumes of isopropanol overnight. RNA quantification was performed using the Qubit 4.0 fluorometer following the Qubit RNA broad range assay kit (Invitrogen). 500 ng of RNA was used for reverse transcription with the iScript reverse transcription supermix (Biorad) following the manufacturer's protocol. PCR was then used to […] amplify the region of interest in the m^6A sensor mRNA sequence (see Table 2). PCR products were column purified before Sanger sequencing using QiaQuick spin columns (Qiagen) and 10 μL reactions were submitted for standard amplicon sequencing (Azenta Life Sciences). C-to-U editing percentage was calculated using the EditR web server 59. To measure gene expression using gene-specific oligos, qPCR was performed using iTaq universal SYBR green Supermix (Biorad). 20 μL reactions were set up with 1 μL of cDNA for each sample, in 3 technical replicates. qPCR was performed on a Biorad CFX Duet real-time PCR instrument, and results were analyzed by normalizing threshold cycle of each target gene to 18S rRNA according to established methods^60. At least 2 biological replicates were used for each sample, and results are plotted as mean relative fold expression comparing treatment to the control group as indicated. Error bars represent standard deviation, and statistical significance was calculated using a two-way t-test assuming unequal variance.

[1] = tested on: METTL3 (m^6A methylation of the GEMS reporter mRNA), HEK293T cells; experiment: GEMS EGFP fluorescence microscopy / quantitative microscopy in HEK293T cells; format: cell-based, human
Experimental: Plasmid Transfection. Transfections were performed using Fugene HD (Promega) according to the manufacturer's instructions. For METTL3 inhibition experiments, cells were treated with 10 μM or 30 μM of STM2457 (MedChemExpress) for 16 hours prior to transfection. Cells were treated with 0.1% DMSO (VWR Life Science) as a control. For experiments using METTL3 degron cells, 0.1 mg/mL of auxin or equivalent volume of H2O (control) was added to the cells for 24 hours prior to plasmid transfection.
Microscopy. All images were obtained using a Leica DMi8 inverted fluorescence microscope. Images were processed using the Leica LAS X software. 4-5 fields of view were obtained per sample, and representative images were selected for each experiment.
Quantitative Microscopy. HEK293T cells were plated in 10 cm cell culture-treated dishes at a density of 2.2×10^6 cells per plate and allowed to grow overnight. Cells were then treated with 30 μM of STM2457 or DMSO control for 16 hours. Cells were then transfected with the GEMS-PEST-DsRed plasmid and allowed to grow for an additional 16 hours. Prior to imaging, media was replaced with 1×PBS with 1 μg/mL Hoechst nuclear fluorescent stain (ThermoFisher Scientific) for 30 minutes. Cells were imaged using a Leica DMi8 fluorescence microscope. Images were analyzed by ImageJ image analysis software. First, fluorescence channels were separated and RGB fluorescence channels were converted to grayscale (16-bit). Binary image thresholds were set in relation to DsRed fluorescence signal and background noise was subtracted. Individual cells were selected, and pixel intensities were generated of each individual cell within the field of view. Similar binary image thresholding, cell selection, and intensity datasets were generated for the EGFP image channel. Data were analyzed by dividing EGFP signal intensity for each cell by average DsRed signal intensity. Data were plotted in JMP software (IMP 17.0, SAS Institute Inc.) by normalized EGFP signal intensity for each treatment. Boxplots represent interquartile range of the data and whiskers represent minimum and maximum data points excluding outliers. Statistical significance was calculated using a two-way t-test assuming unequal variance.

[2] = tested on: METTL3 (m^6A methylation of the GEMS reporter mRNA), HEK293T cells; experiment: Western blot and densitometry (EGFP, EGFP-DHFR) in HEK293T cells expressing GEMS; format: cell-based, human
Experimental: Western blotting. Cells were dissociated in culture plates using TrypLE (Gibco) and collected by centrifugation (6,000 rpm, 10 minutes, 4° C.). Cell pellets were resuspended in 150 μL chilled standard RIPA buffer (1% Triton X-100, 0.1% Sodium Deoxycholate, 0.1% SDS) prepared with the addition of Complete Mini protease inhibitor (Sigma Aldrich) immediately before use. Cells were resuspended and incubated on ice in RIPA buffer for 30 minutes. Cell lysates were cleared by centrifugation (13,000 rpm, 10 minutes, 4° C.) and mixed in a 1:1 ratio with NuPage LDS sample buffer (Invitrogen) with 5% Beta-Mercaptoethanol (Sigma). Samples were separated by gel electrophoresis on NuPage 4-12% Bis-Tris SDS-PAGE gels (Invitrogen), then transferred onto PVDF membranes (Amersham) using semi-dry transfer (Trans-Blot Turbo, Biorad). Membranes were blocked with 4% milk powder in 0.1% PBST and incubated with the appropriate primary antibody overnight at 4° C. Membranes were then washed with 0.1% PBST and incubated for 1 hour at room temperature in secondary antibody. Blots were washed and incubated in chemiluminescent ECL reagent solution (Amersham) then imaged in a ChemiDoc MP imaging system (BioRad) under chemiluminescent and colorimetric light. In western blot images, cyclophilin A is shown as a loading control and all western blots are representative of a minimum of 3 independent biological replicates. The following antibodies were used in this study: GFP tag Polyclonal antibody (Proteintech, 50430-2-AP). Anti-HA rabbit monoclonal antibody (Cell Signaling, 3724). Anti-Cyclophilin A antibody (Cell Signaling, 2175S). Anti-DsRed-Express2 Monoclonal Antibody (Fisher Scientific, CF180014). Anti-METTL3 antibody (abcam, ab195352). Anti-SOCS2 antibody (abcam, ab109245). Anti-p53 (7F5) Rabbit monoclonal antibody (Cell Signaling, 2527S). Recombinant Anti-JAK2 Antibody (abcam, ab108596). Recombinant Anti-STAT5 (phosphorylated Y694) (abcam, ab32364). Anti-STAT5 antibody (Cell Signaling, 25656S). Secondary antibodies used in this study: Goat Anti-Rabbit IgG HRP (Abcam, ab6721), Goat anti-mouse IgG HRP (Fisher Scientific, 62-6520).
For densitometry analysis, western blot images were quantified using ImageJ software 58. EGFP band intensity was normalized to either EGFP-DHFR or (EGFP+EGFP-DHFR) as indicated in each experiment. Similar densitometry analysis was used to measure total protein production (EGFP+EGFP-DHFR), normalized to the Cyclophilin A loading control. At least two replicates were used for each western blot quantification analysis. Bars are plotted as mean intensity ratio and error bars represent standard deviation.

m^6A sensor sequence = experiment: RT-PCR/Sanger sequencing of C-to-U editing of the m^6A sensor sequence in HEK293T cells; format: cell-based, human
Experimental: as §1

[3] = tested on: m^6A in cellular mRNA, HEK293T cells; experiment: Mass spectrometry of m^6A in purified mRNA; format: cell-based, human
Experimental: Mass spectrometry analysis. Total RNA was extracted as described above, and mRNA was purified using two rounds of oligo(dT) purification with Dynabeads oligo-(dT) mRNA purification kit (Invitrogen), followed by 2 rounds of rRNA depletion using NEBNext rRNA Depletion Kit (V2.0, NEB), and an additional two rounds of oligo(dT) purification with Dynabeads oligo-(dT) mRNA purification kit (Invitrogen). All mRNA purification steps were performed following the manufacturer's instructions. Purified mRNA quality was checked using a Bioanalyzer high sensitivity RNA analysis 6000 pico kit (Agilent). For mass spectrometry analysis, 100-200 ng of purified mRNA was incubated with 2 U of Nuclease P1 (Sigma) with 2.5 mM ZnCl and 25 mM NaCl at 37° C. for 2 hours. mRNA samples were treated with 5 U of antarctic phosphatase (NEB) for 2 h at 37° C. Samples were then processed using the Xevo TQ-S mass spectrometry system. All nucleosides were quantified by retention time and ion mass transitions of 268.2 to 133.2 (A) and 282.2 to 150.1 (m^6A). Data were plotted as a percentage of m^6A relative to A. At least 2 biological replicates were performed for each sample.

Huh-7 cells = experiment: RT-qPCR gene expression in Huh-7 cells; format: cell-based, human; conditions: increasing amounts of STM2457 (FIG. 9C)
Experimental: as §1, with “PCR products were column purified before Sanger sequencing using QiaQuick spin columns (Qiagen) and 10 μL reactions were submitted for standard amplicon sequencing (Azenta Life Sciences).” left out, “To measure gene expression using gene-specific oligos, qPCR was performed using iTaq universal SYBR green Supermix (Biorad).” left out, “At least 2 biological replicates were used for each sample, and results are plotted as mean relative fold expression comparing treatment to the control group as indicated.” left out

MOLM-13 cells = conditions: AML cell line with high levels of METTL3; cited from earlier work
[4] = tested on: m^6A sensor sequence and endogenous ACTB A1222; experiment: RT-qPCR-based m^6A quantification in HEK293T cells; format: cell-based, human; conditions: METTL3 degron cells, auxin (FIG. 3F)
Experimental: m^6A detection using RT-qPCR. RNA was extracted and treated with DNase I as described above, and a relative quantification of m^6A by RT-qPCR was adapted from^28. 4 reverse transcription reactions were set up using 150 ng of RNA for each: 2 reactions using BstI polymerase (NEB), and 2 reactions using Superscript reverse transcriptase enzyme (Fisher Scientific). For each reverse transcriptase, one reaction included a primer adjacent (+) to the site being tested (reverse compliment reverse oligo immediately downstream of the site), and the other reaction included a primer that is non-adjacent (−) to the site. The BstI reaction consisted of 10 U BstI polymerase, […], 500 nM oligos (adjacent (+) or non-adjacent (−)), in 1× ThermoPol Buffer. Reactions were incubated in a thermal cycler with the following cycling settings: 3 minutes at 25° C., 30 minutes at 50° C., and 3 minutes at 85° C. Superscript III (SSIII) reactions consisted of 200 U Superscript III, […], 25 mM MgCl2+, 10 mM dNTPs, 500 nM oligos (adjacent or non-adjacent), 2 μL 10× FS Buffer, and water up to 20 μL. […] Threshold cycle values were obtained and relative m^6A was calculated using the formula: 2−(CT Bst(−)−Ct SSIII(−)/Ct Bst(+)−Ct SSIII(+)). […] Error bars represent standard deviation, and statistical significance was calculated using a two-way t-test assuming unequal variance.

## C[C@@H]1C[C@@H]([C@H](O)CC2CC(=O)NC(=O)C2)C(=O)[C@@H](C)C1 [cycloheximide]
m^6A reporter mRNA; HEK293T with GEMS, cycloheximide 0-120 minutes (FIG. 3I)
  m^6A reporter mRNA levels: no effect

## STM2457
[1]; HEK293T, 30 μM STM2457, 24 h (FIG. 5A)
  EGFP fluorescence from the GEMS system: reduced
[1]; HEK293T, 30 μM STM2457, EGFP normalized to DsRed (FIG. 5B)
  EGFP fluorescence intensity, quantitative microscopy: significant reduction
[1]; HEK293T, 10 or 30 μM STM2457, 24 h, DsRed internal control (FIG. 5E)
  m^6A-coupled EGFP fluorescence: increased depletion
[1]; HEK293T, 10 or 30 μM STM2457, GEMS-EGFP-PEST, compared to GEMS-EGFP (FIG. 5L)
  EGFP signal, GEMS with EGFP-PEST: greater depletion at lower doses
[1]; HEK293T, STM2457 for 16 hours, then dCas13-GEMS and gRNAs (FIG. 8F)
  EGFP fluorescence / GEMS activity activated by dCas13-GEMS: abolished; also recorded: decreased
[2]; HEK293T, 30 μM STM2457, 24 h (FIG. 5D)
  EGFP/EGFP-DHFR ratio, densitometry: reduced EGFP/EGFP-DHFR ratio
[2]; HEK293T, 10 or 30 μM STM2457 (FIG. 5F)
  production of EGFP protein, western blot: decreased production of EGFP protein with increasing doses
[2]; HEK293T, STM2457-treated (FIG. 5C)
  EGFP protein, western blot: decreased EGFP protein
[2]; HEK293T, increasing doses of STM2457 (FIG. 5M)
  production of EGFP protein, western blot, GEMS with EGFP-PEST: decreased production of EGFP protein with increasing doses
m^6A sensor sequence; HEK293T, 30 μM STM2457, 24 h (FIG. 5J)
  C-to-U editing of the m^6A sensor sequence: reduced C-to-U editing
m^6A sensor sequence; HEK293T, 10 or 30 μM STM2457 (FIG. 5G)
  editing of the m^6A sensor sequence: decreased editing with increasing amounts
m^6A sensor sequence; HEK293T, increasing amounts of STM2457 (FIG. 5N)
  editing of the m^6A sensor sequence, GEMS with EGFP-PEST: decreased editing with increasing amounts
[3]; HEK293T, STM2457 treatment (FIG. 5H)
  m^6A in purified mRNA, mass spectrometry: depletion of m^6A
m^6A reporter mRNA; HEK293T, 30 μM STM2457 or DMSO (FIG. 5I)
  abundance of the m^6A reporter mRNA: no significant difference
Huh-7 cells
  SOCS2 mRNA expression, RT-qPCR: dose-dependent increase
MOLM-13 cells
  proliferation and colony formation: reduced proliferation and colony formation

## O=C(O)Cc1c[nH]c2ccccc12 [auxin]
[1]; HEK293T METTL3 degron cells, auxin (FIG. 3B)
  EGFP fluorescence from the GEMS system: reduced EGFP fluorescence
[2]; METTL3 degron cells expressing GEMS (FIG. 3H)
  total reporter mRNA protein production (EGFP+EGFP-DHFR) relative to cyclophilin A: no significant difference
[2]; METTL3 degron cells, auxin (FIG. 3C)
  METTL3 and EGFP protein, western blot: loss of METTL3 and EGFP
[2]; METTL3 degron cells, auxin (FIG. 3D)
  EGFP/EGFP-DHFR ratio: decrease in EGFP/EGFP-DHFR
m^6A sensor sequence; METTL3 degron cells, auxin (FIG. 3E)
  C-to-U editing of the m^6A sensor sequence: Editing is reduced
[4]
  m^6A sensor sequence methylation, RT-qPCR: decreased m^6A
[3]; METTL3 degron cells, auxin-treated (FIG. 3A)
  m^6A in purified mRNA, mass spectrometry: decrease in m^6A
m^6A reporter mRNA; METTL3 degron cells with and without auxin (FIG. 3G)
  m^6A reporter mRNA expression, RT-qPCR: no significant difference
